Tests used:
[1] = test system: HCT-116 human colon cancer cells; test: MTS cytotoxicity assay, HCT-116; assay type: cell-based
[2] = test system: Caco-2 human colon cancer cells; test: MTS cytotoxicity assay, Caco-2; assay type: cell-based; conditions: Caco-2, read-out: IC50 (consistent values of the control)
[3] = test system: CCD-18Co normal colon fibroblasts; test: MTS cytotoxicity assay, CCD-18Co; assay type: cell-based, human; conditions: colon cancer cells (HCT-116, Caco-2) vs CCD-18Co

For COc1cc2c3c(c1O)-c1cc4c(cc1C[C@@H]3N(C)CC2)OCO4 [Compound 1, domesticine], the “fold less potent than the benchmark etoposide” value ([1]; HCT-116 cell line) was “approximately 3 fold”.
COc1cc([C@@H]2c3cc4c(cc3[C@@H](O[C@@H]3O[C@@H]5CO[C@@H](C)O[C@H]5[C@H](O)[C@H]3O)[C@H]3COC(=O)[C@H]23)OCO4)cc(OC)c1O [etoposide] was tested, and the IC50 [2] was 15 to 25 µM and the IC50 ([1]; Homo sapiens, HCT-116, read-out: IC50 (consistent values of the control)) was 15 to 25 µM.
In the case of CCC(CC)COc1c(OC)cc2c3c1-c1cc4c(cc1C[C@@H]3N(C)CC2)OCO4 [Compound 3], the “selectivity for colon cancer cells vs normal colon fibroblasts (CCD-18Co)” value [3] is reported as “approximately 2 fold”.
